# Measured values from US9047904B2, “Magnetic recording medium” (priority 2009, dated 2015).
# Details: 50 mg in 20 mL water + 30 mL tetrahydrofuran; titrated with 0.1N NaOH; pH at half of the neutralization titration quantity
# Procedure: In the present invention, the term “acid strength” refers to a value that is measured by the following method.
# A 50 mg sample of organic acid A or B is dissolved in a mixed solution of 20 mL of water and 30 mL of tetrahydrofuran. Titration to neutral is conducted using a model GT-100 Win automatic titrator made by Mitsubishi Chemical Analytech with 0.1N NaOH (Wako Pure Chemical Industries). The pH corresponding to half of the titration quantity that is added dropwise to attain the neutralization point is read, and that pH is adopted as the acid strength.
# <Acid Strength of Organic Acids A and B>
# A 50 mg sample of organic acid A or B was dissolved in a mixed solution of 20 mL of water and 30 mL of tetrahydrofuran. Titration to neutral was conducted with 0.1N NaOH (Wako Pure Chemical Industries) using a model GT-100 Win automatic titrator made by Mitsubishi Chemical Analytech. The pH corresponding to half of the titration quantity that was added dropwise to attain the neutralization point was read, and that pH was adopted as the acid strength.
Compound,pKa(B) (acid strength of organic acid B),pKa(A) (acid strength of organic acid A)
"O=C(O)CC(O)(CC(=O)O)C(=O)O [Citric acid, citric acid]",5.84,–
Phenyl phosphate,–,4.01
